Experimental data published in PubChem BioAssay AID179 (DTP/NCI, 2004).
Values joined by “and” are separate entries in the source; they are usually repeats but may differ in a detail not shown here. Identical values can stand only once. Active and inactive are the calls of the source.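 Rule for the calls: active = compounds giving half or more protection of infected cells from virus-caused growth loss, again on retest; inactive = the rest.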 *1 amine or outer side, *2 acyl side, *3 side chain or, on linkers, in order; H or OH if unused. Where a SMILES comes first, the peptide text is derived from it. [ ]: non-standard residue; d: D form. The star is where a group is joined. ξ: configuration not given here. X15 = O=C([C@H]1CCC[C@H]1N[*:1])[*:2]; ξW = NC(Cc1c[nH]c2ccccc12)C(=O)O; ξF = NC(Cc1ccccc1)C(=O)O; Boc = CC(C)(C)OC(=O)*; ξK = NCCCCC(N)C(=O)O; ξT = CC(O)C(N)C(=O)O; tBu = CC(C)(C)*

Tested on: CEM cells HIV-1 protection, formazan growth assay
Assay: NCI AIDS Antiviral Assay
Details: for IC50: measured here: growth of uninfected CEM cells
Outline: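 Protection of CEM cells against HIV-1 measured as cell growth via soluble formazan read-out, with five concentrations tested on both infected and uninfected cells; failure to protect may reflect toxicity.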

| Structure (SMILES) | EC50 [µM] | IC50 | outcome |
| --- | --- | --- | --- |
| CCCCCCCCCCCCNC(=O)c1ccc([Se][Se]c2ccc(C(=O)NCCCCCCCCCCCC)cc2)cc1 | > 7.08 | > 7.08 µM |  |
| COc1cc2nncc(SCc3ccc(Cl)c(Cl)c3)c2cc1OC | > 39.8 | 4.57 µM |  |
| Cc1cnc2c(c1)C(=O)N(c1ccc([N+](=O)[O-])cc1)S2(=O)=O | > 200 | 17.4 µM |  |
| CSc1nc(SC)c(Nc2cccc(C)c2)c(SC)n1 | > 200 | 3.47 µM |  |
| Nc1c(Cl)cccc1-c1c[nH]c(Cl)c1Cl | > 138 | 72.4 µM |  |
| COC(=O)C(Cc1ccccc1)OC(=O)C(N)CC(=O)O (stereo not given) | > 200 | > 200 µM |  |
| O=c1[nH]c(Nc2cccc(C(F)(F)F)c2)nc2nc[nH]c12 | > 200 | 97.7 µM |  |
| O=C1c2ccccc2CC1C1(O)C(=O)Nc2c(Cl)cc(Cl)cc21 (stereo not given) | > 102 | > 102 µM |  |
| CN(C)CCCn1c(-c2ccc(Br)cc2)csc1=Nc1ccccc1 | > 200 | 9.77 µM |  |
| CS(=O)(=O)N(CCC#N)c1ccc(/C=C2\N=C(c3ccccc3Cl)OC2=O)cc1 | > 219 | > 219 µM |  |
| CCC1CCC23OOC(C)(CCC2C1)O[C@@H]3OC (stereo not given in full) | > 49 | > 49 µM |  |
| CCC(C)C(N)C(=O)NCC(=O)NC(CCCN=C(N)N)C(=O)NC(CC(N)=O)C(=O)NC(CC(C)C)C(=O)NC(CC(C)C)C(=O)NC(C(=O)NC(CCC(N)=O)C(=O)NC(C(=O)NCC(=O)O)C(C)CC)C(C)O (stereo not given) (H-IGRNLLTQIG-OH; configuration not given here) |  |  | inactive |
| CC(C)[C@](O)(C(=O)OCC1=CC[N+]2([O-])CC[C@@H](O)[C@@H]12)[C@H](C)O (stereo not given in full) | > 398 | > 398 µM |  |
| C[N+]1(C)C[C@@H](O)C[C@@H]1C(=O)[O-] | > 1580 | > 1580 µM |  |
| O=C1C=C(Nc2ccc(Cl)cc2C(=O)c2ccccc2)c2ccccc2C1=O | > 174 | > 174 µM |  |
| Cc1[nH]n(-c2ncc(C(=O)O)c(=O)[nH]2)c(=O)c1CCO | > 200 | > 200 µM |  |
| O=S1(=O)CCN2OCC1C2c1cccc2ccccc12 (stereo not given) |  |  | inactive |
| CC(OC(C)(C)C)C1NC(=O)C(CCCCNC(=O)OC(C)(C)C)NC(=O)C(Cc2c[nH]c3ccccc23)NC(=O)C(Cc2ccccc2)NC(=O)[C@H]2CCC[C@H]2NC(=O)C(Cc2ccccc2)NC1=O (stereo not given in full) (cyclo([X15][ξF][ξW][ξK](Boc)[ξT](tBu)[ξF])) |  |  | inactive |
| N#CC1CC2(C(=O)C1=O)c1ccccc1-c1ccccc12 (stereo not given) |  |  | inactive |
| COc1cc2oc3ccccc3c(=O)c2cc1CSc1ccccc1N | > 14.5 | 11 µM |  |
| C/C(Sc1ccccc1)=C1/CCCN(Cc2ccccc2)C1 | > 200 | 74.1 µM |  |
| COC(=O)C12C3C4C1C1C2C3C41C(=O)OC(C)(C)C (stereo not given) | > 257 | > 257 µM |  |
| CC1(C)CC(=O)C2=C(C1)OC1=C(C(=O)CC(C)(C)C1)C2C(O)C(O)C(O)CO (stereo not given) | > 200 | > 200 µM |  |

| Structure (SMILES) | EC50 [µM] | IC50 | outcome |
| --- | --- | --- | --- |
| O=C1CCCC[C@H]1[C@H]1CCC[C@@H]([C@H]2CCCCC2=O)C1=O | > 871 | 398 µM |  |
| C=C[C@@]1(O)CCCC2=C(C(=O)OCC)CC[C@]21C |  |  | inactive |
| O=C(C1=CCC2(CC1)OCCO2)N(Cc1ccccc1)c1ccccc1I | > 200 | 32.4 µM |  |
| C=CCOC(=O)CC[N+]1=CCC(c2ccccc2)(c2ccccc2)O1 | > 29.5 | > 29.5 µM |  |
| c1cnc2c(c1)n[n+]1[n-]c3ccccc3n21 | > 12.3 | > 12.3 µM |  |
| CC(=O)N(C)c1ccc(/C=C2\C=Cc3ccccc32)cc1 | > 49 | 12.3 µM |  |
| O=C1N[C@H]2CS(=O)(=O)C[C@H]2N1 | > 200 | > 200 µM |  |
| COc1ccc2c(c1OC)C(=O)O[C@@H]2[C@H]1c2c(cc3c(c2OC)OCO3)CCN1C | > 200 | 24.5 µM |  |
| CCOC(=O)NC(OCCN(C)C)(C(F)(F)F)C(F)(F)F | > 200 | > 200 µM |  |
| CCN(CC)C(=O)CCn1ccc(=O)[nH]c1=O | > 1050 | > 1050 µM |  |
| CCCC1OC(CCC)C2CCCOC2O1 (stereo not given) | > 200 | > 200 µM |  |
| COc1ccc(/C=C2/SC(c3ccccc3)N(NC(=O)CCCCCCCCC(=O)NN3C(=O)/C(=C\c4ccc(OC)c(OC)c4)SC3c3ccccc3)C2=O)cc1OC (stereo not given) | > 200 | 91.2 µM |  |
| CNCC(=O)NC(CO)C(=O)NC1C(C(N)=O)OC(n2ccc(N)nc2=O)C(O)C1O (stereo not given) |  |  | inactive |
| CCCCCCCCCCCCCC1=C(O)C(=O)C(CC2=C(O)C(=O)C(CCCCCCCCCCCCC)=C(O)C2=O)=C(O)C1=O | > 17 | > 17 µM |  |
| CCOC(=O)COc1c(C)cc(SSc2cc(C)c(OCC(=O)OCC)c(C)c2)cc1C | > 200 | 12 µM |  |
| CC(C)Oc1c(C2(c3ccccc3O)SCCCS2)c(=O)c1=O | > 200 | 112 µM |  |
| CCOCC(NC(=O)C(CC(C)C)NC(=O)OC(C)(C)C)C(N)=O (stereo not drawn) (Boc-Leu-Ser(Et)-NH2; configuration not given here) | > 200 | > 200 µM |  |
| CCOC(=O)Nc1cc2c(c(N)n1)N=C(CN(C)c1ccccc1)CN2 | > 34.7 | 0.0741 µM |  |
| CCCCCCCCCCCCC/C=C\[C@@H](OC(=O)c1ccccc1)C(CO)N=[N+]=[N-] (stereo not given in full) |  |  | inactive |
| Cc1cc(-c2ccc(Cl)cc2)c(C#N)c(=S)n1C1OC(CO)C(O)C(O)C1O (stereo not given) | > 200 | > 200 µM |  |
| Cc1c(C)c2ccc3oc4ccccc4c3c2oc1=O | > 38 | > 38 µM |  |
| Cc1nc2ccccc2c(=O)n1-c1ccccc1I | > 100 | > 100 µM |  |
| C[C@H](c1ccccc1)N1C(=O)[C@@H](O)[C@H]1[C@H](CO)OCc1ccccc1 | > 200 | > 200 µM |  |

| Structure (SMILES) | EC50 [µM] | IC50 | outcome |
| --- | --- | --- | --- |
| Cc1ccnc2c1C(=O)C(=O)C=C2N1CCCC1 |  |  | inactive |
| CN(C)C(c1ccccc1)C1COC2Cc3ccccc3C1O2 (stereo not given) | > 200 | > 200 µM and 151 µM |  |
| CCCCCCCCCCCCCCCCSS(=O)(=O)CCCCCCCC | > 74.1 | > 74.1 µM |  |
| OCCCNCC(O)c1ccc(OCc2ccccc2)c(OCc2ccccc2)c1 (stereo not given) | > 200 | 5.13 µM |  |
| C[N+](C)=c1ccc2nc3c(ccc4ccccc43)oc-2c1 | > 60.3 | 8.32 µM |  |
| CCOC(=O)c1c(/C=N\Nc2ccccc2)nc2ccccc2c1-c1ccccc1 | > 64.6 | 26.3 µM |  |
| c1ccn2nnnc2c1 | > 2090 | > 2090 µM |  |
| O=C(O)/C=C\C(=O)c1ccc(Cl)cc1 | > 324 | 58.9 µM |  |
| NNC(=O)Cn1c2ccc(Br)cc2c2nc3ccccc3nc21 | > 200 | 28.2 µM |  |
| Cc1nc2cnc(Nc3ccccc3)nc2n(-c2ccccc2)c1=O | > 200 | > 200 µM |  |
| Cc1nc2c(nc1C)C(=O)C1=C(C2=O)C2C=CC1CC2 | > 70.8 | 1.62 µM |  |
| COC1CCC(=O)N1CC/C=C(/Br)[Si](C)(C)C (stereo not given) |  |  | inactive |
| COc1ccc(/C=c2/sc3n(c2=O)C(c2ccccc2)C2(O)CCCCC2N=3)cc1 (stereo not given) | > 200 | > 200 µM |  |
| NS(=O)(=O)c1nnc(NC(=O)/C=C/C(=O)O)s1 | > 200 | > 200 µM |  |
| COC1CC(C)(NC(=O)C(F)(F)F)C2OC(c3ccccc3)OCC2O1 (stereo not given) | > 200 | > 200 µM |  |
| COc1ccc(C2COc3c(ccc(OC)c3OC)C2=O)cc1OC (stereo not given) |  |  | inactive |
| CC(=C/c1ccccc1)/C=C1/NC(=S)NC1=O | > 200 | > 200 µM |  |
| COC(=O)c1nc(-c2ccc(Cl)c(Cl)c2)nc2ccccc12 |  |  | inactive |
| NNC(=O)c1nnn(CCc2ccccc2)c1C(=O)NN | > 200 | > 200 µM |  |
| O=C1C(=C(C(F)(F)Cl)C(F)(F)Cl)C2CCC1C2 (stereo not given) |  |  | inactive |
| O=C(/C=C/c1ccccc1)c1ccc(Oc2ccccc2)cc1 | > 200 | 23.4 µM |  |
| CN(N)c1nc(N)c(C#N)c(C#N)c1C#N | > 100 | > 100 µM |  |
| N#C/C(=C\c1ccco1)C(N)=O | > 200 | > 200 µM |  |

| Structure (SMILES) | EC50 [µM] | IC50 | outcome |
| --- | --- | --- | --- |
| CCCCc1ccc(Nc2nc(OC)c3ncn(C4CC(O)C(CO)O4)c3n2)cc1 (stereo not given) | > 200 | 15.1 µM |  |
| CC(=O)N(C(=O)CC(=O)NNCc1ccccc1Cl)c1ccc(Cl)cc1 | > 200 | > 200 µM |  |
| C=CCC1(OC(C)=O)C2OC(=O)C1(O)OCC2O (stereo not given) | > 200 | > 200 µM |  |
| CCOC(=O)n1c2ccccc2c2c(O)c(OC)c3c(c21)C(=O)NC3=O | > 200 | 30.2 µM |  |
| CCOC(=O)C1(CC)OC12CCCCC2 (stereo not given) | > 200 | > 200 µM |  |
| COC(=O)C1CC2C=CC=CC(=O)C2(C)C1 (stereo not given) | > 251 | 33.1 µM |  |
| O=C1c2cc3c(cc2CC12Cc1cc4c(cc1C2=O)CCC4)CCCC3 (stereo not given) | > 200 | > 200 µM |  |
| COC(=O)C1OS(=O)(=O)OC1C(=O)OC (stereo not given) | > 200 | > 200 µM |  |
| Nc1nc(N)c(N=O)c(Nc2ccc(O)cc2)n1 | > 200 | 170 µM |  |
| OCc1nnn(-c2ccccc2)c1CO | > 200 | > 200 µM |  |
| CCOP(=O)(c1ccccc1)C([CH2][Sn]([CH3])([CH3])[Cl])P(=O)(OC(C)C)OC(C)C (stereo not given) | > 200 | 4.47 µM |  |
| Cc1ccc2c(c1)N=C(Nc1ccccc1)N=S2(C)=O (stereo not given) |  |  | inactive |
| COC(=O)C1C(O)CC(c2ccccn2)N(Cc2ccccc2)C1c1ccccn1 (stereo not given) | > 89.1 | 83.2 µM |  |
| N#CC(O)CCOCc1ccccc1 (stereo not given) | > 200 | 53.7 µM |  |
| Nc1nc2c(C(=O)c3cccs3)nnn2c2cccc(Cl)c12 | > 11.5 | > 11.5 µM |  |
| COc1ccc(-c2nc(-c3cc4c(ccc5ccccc54)oc3=O)cs2)cc1 | > 100 | > 100 µM |  |
| Cn1c2ccccc2n2c(=O)c3cc([N+](=O)[O-])ccc3c(C#N)c12 | > 100 | > 100 µM |  |
| CC1CC(N)=C(C#N)C1(C#N)C#N (stereo not given) | > 200 | 138 µM |  |
| NC(Cc1ccc(S(=O)(=O)O)cc1)C(=O)NC(Cc1ccc(S(=O)(=O)O)cc1)C(=O)O (stereo not given) | > 200 | > 200 µM |  |
| O=C(CCN1CCCCC1CO)Nc1ccc2c(c1)C(=O)c1ccc(NC(=O)CCN3CCCCC3CO)cc1C2=O (stereo not given) | > 200 | 3.16 µM |  |
